Measurements: patent US6465636B1, “Pathogen-inducible promoter” (Zeneca Mogen B.V., priority 1998, dated 2002)
Like-named read-outs stand apart in the source and are kept apart here.

Tested on: ms59 messenger
Assay: Induction of ms59 messengers in sunflower leaves, transcript levels by competitive RT-PCR
Assay type: in vivo, Helianthus annuus cv Zebulon
Conditions: Helianthus annuus, read-out: fold induction of the ms59 messenger relative to the control
Procedure: Leaves of 7 to 8 weeks old Sunflower plants (Helianthus annuus cv Zebulon) were induced by spraying 5 times with 5 mM salicylic acid (SA), spraying once with 1 mM salicylic acid, once with 0.1 mm jasmonic acid (JA), once with 1 mM ACC (1-aminocyclopropane-1-carboxylic acid, a precursor of the plant hormone ethylene) or wounding. Leaf samples were harvested from induced leaves after 24 hours (1 mM SA, 0.1 mM JA, 1 mM ACC and wounding) and after 5 days (5 mM SA). Control samples were taken at 24 hours after induction in non-induced plants.
Total RNA was extracted from 10 g leaf material using a hot phenol method and purified using the Qiagen RNA buffer set and tip-100 columns (Qiagen GmbH, Germany). Contaminating DNA was degraded using a Dnase I (Gibco BRL) treatment.
cDNA was prepared using 1 μg total RNA, 1 μl oligo(dT)12-18 primers (500 μg/ml, Gibco BRL) and 200 units of Superscript II RT RNAse H reverse transcriptase (Gibco BRL) as described by the manufacturer.
Transcript levels of ms59 were determined using the competitive RT-PCR technology.
PCR MIMIC dilutions were made in a range of […] to 0.01 ag/μl in H2O containing 0.2 μg/μl glycogen as a carrier.
The cDNA samples were analysed in a competitive RT-PCR. Therefore 2 µl of the samples was combined in a 0.5 ml tube with 1 μl diluted PCR MIMIC (amounts; 0.1 pg, 10 fg, 1.0 fg, 0.1 fg, 10 ag and 1.0 ag). Amplification of cDNA and MIMIC was performed using 10 μM of the primers FR-MS59-47 and FR-MS59-77, 0.5 μl 20 mM dNTP's, 1×PCR buffer, MgCl and 2.5 units recombinant Taq DNA polymerase (Gibco BRL) and was allowed to proceed for 35 cycles, 1′ 95° C., 1′ 55° C., 2′ 72° C. PCR products were separated on a 2% agarose gel and visualized by staining with ethidium bromide and a UV illuminator.

`NC1(C(=O)O)CC1` [ACC, 1-aminocyclopropane-1-carboxylic acid] was tested. Which fold induction at 1000 µM (24 h) did it give?
The fold induction at 1000 µM was 10.

For `CC/C=C\C[C@H]1C(=O)CC[C@@H]1CC(=O)O` [jasmonic acid], which fold induction at 100 µM (24 h) is on record?
The fold induction at 100 µM was 10.

Which fold induction at 5000 µM (120 h, 5 mM, leaves sprayed 5 times, harvested after 5 days) does the source give for `O=C(O)c1ccccc1O` [salicylic acid] here?
The fold induction at 5000 µM was 1000.

And the fold induction at 1000 µM (1 mM, leaves sprayed once, harvested after 24 hours)?
Its fold induction at 1000 µM is 1.
